This note sets out measurements from patent EP1054594B1, “INOTROPIC AND DIURETIC EFFECTS OF EXENDIN AND GLP-1” (AMYLIN PHARMACEUTICALS, INC., priority 1998, dated 2007).

Test [1] is described as follows: Diuretic effects of GLP-1 or exendin in anesthetized rats (urine flow, sodium excretion, urinary potassium after intravenous bolus). It counts as in vivo, Male, Harlan Sprague Dawley rats. As to the method: Surgical preparation: The preparation used here was as described in Young et al., (Drug Dev Res. 37:231-248, 1996), but modified by the addition of unilateral ureteral cannulation. Anesthesia was induced with 5% halothane, maintained with 2% halothane during surgery and with 0.7 to 1% thereafter. Tracheotomy and cannulation of a femoral artery, saphenous vein and a single ureter were performed. […] The venous line was used for drug administration. Total saline infusion rate was kept at 4 mL/hr.
Observations are expressed as the percent of baseline, defined as the mean of measurements made in the 30 min prior to starting peptide or vehicle infusion. Data are expressed as mean±SEM. n=5-6.
Unilateral urine flow was measured by weighing the 15-minute output of the cannulated ureter. Total urine flow was estimated as twice this amount.
Treatments: To obtain dose-responses, peptides were dissolved in 0.15 M NaCl and administered as 0.1 ml bolus.

Test [2] in a line: Arterial blood pressure and dP/dt in conscious rats by telemetry. It counts as in vivo, Male, Harlan Sprague Dawley rats. The settings on record: single intraperitoneal (ip) injection (100 µl). The text has this: Insertion of Transducers: Male, Harlan Sprague Dawley rats were anesthetized with halothane and the abdominal aorta exposed after laparotomy. According to procedures detailed in the "Pressure Telemetry" manual from Data Sciences Inc., pressure transducer/transmitters were secured in place on the abdominal wall with the catheter tip in the abdominal aorta ~2mm above bifurcation. Following closure, the animals then recovered to allow at least 7 days of stable recordings. Baseline data were collected during the 7+ days after surgery.
The transmitted signals were recorded via telemetry and stored on a personal computer. Rate of pressure change, dP/dt, was calculated by software provided by Data Sciences.

Consider `CC[C@H](C)[C@H](NC(=O)[C@H](Cc1ccccc1)NC(=O)[C@H](CCC(=O)O)NC(=O)[C@H](CCCCN)NC(=O)[C@H](C)NC(=O)[C@H](C)NC(=O)[C@H](CCC(N)=O)NC(=O)CNC(=O)[C@H](CCC(=O)O)NC(=O)[C@H](CC(C)C)NC(=O)[C@H](Cc1ccc(O)cc1)NC(=O)[C@H](CO)NC(=O)[C@H](CO)NC(=O)[C@@H](NC(=O)[C@H](CC(=O)O)NC(=O)[C@H](CO)NC(=O)[C@@H](NC(=O)[C@H](Cc1ccccc1)NC(=O)[C@@H](NC(=O)CNC(=O)[C@H](CCC(=O)O)NC(=O)[C@H](C)NC(=O)[C@@H](N)Cc1c[nH]cn1)[C@@H](C)O)[C@@H](C)O)C(C)C)C(=O)N[C@@H](C)C(=O)N[C@@H](Cc1c[nH]c2ccccc12)C(=O)N[C@@H](CC(C)C)C(=O)N[C@H](C(=O)N[C@@H](CCCCN)C(=O)NCC(=O)N[C@@H](CCCNC(=N)N)C(N)=O)C(C)C` [GLP-1], for which the sodium excretion result in test [1] was “increased”. Moreover, in test [2], the “cardiac contractility (dP/dt)” value is listed as “increase” and the mean arterial pressure entry is “increase”.
